From patent US10398155B2, “Animal feed comprising a combination of mono glycerides” (Proviron Holding N.V., priority 2013, dated 2019) come the findings set out here.

In this experiment the test system is Broiler chicken. Kind of experiment: Broiler growth test over 42 days with additives in animal feed or drinking water (AEW, FCR). The format is in vivo. The conditions noted are these: for D 0-42 AEW (average final weight of the broilers at day 42): Poor Feed day 0-13 then Rich Feed to day 42, average of 5 pens; for Ranking AEW 42 / Ranking FCR 42: compared to Rich feed standard test = 100%; for D 0-42 FCR (conversion of feed to chicken weight): lower is better. As for the experimental part:
Broiler chicken were grown during 42 days, with and without the abovementioned compositions being added to either the animal feed, or the drinking water.
By the end of the test period of 42 days, the final weight of the broiler was determined, this is the AEW (Average End Weight), as well as the degree of conversion of feed to chicken weight, this is the FCR (Feed Conversion Rate). The latter parameter indicates the amount of feed a broiler chicken should eat per kilogram of final weight of the animal. The lower this parameter, the more efficient the chicken has been fed. This parameter is influenced by the way the animal feed is digested by the intestinal tract or metabolism of the chicken, but also by the way the feed offered to the chicken is effectively accepted by the animal. The latter to a large extent is determined by the taste of the feed offered. To the extent the taste of the feed offered is positively acknowledged by the chicken, less feed is removed by the animal; so dependent on the taste of the feed, more or less of the feed is discarded by the chicken.
The tests were performed on groups of each time 20 broilers for each pen.
Each test was repeated on each time five pens, so each test was performed on in total 100 broilers.
Each value represents an average amount of the results obtained for each set of the five pens.
It is then added to the feed as a powdery compound. In practice it is much easier to mix such a powdery composition with the animal feed, as compared to the addition of a fluid to the feed. • The next two columns show the results of the test, expressed as final weight of the animal, in this case a broiler chicken. • The column with the heading D 0-42 AEW denotes the average final weight of the broilers at day 42 (Average End Weight). The higher the value for this parameter, the better. • The column with the title Ranking AEW 42 denotes, expressed as a percentage, the result of the test in terms of AEW, as compared to the standard test, corresponding to a standard value set at 100%. • The last two columns set forth the results of the test, expressed differently, namely as a measure for the conversion of the feed in meat-resp. increase of weight of the animal, as set forth above. • The column with the title D 0-42 FCR denotes the average value of the conversion of feed to weight of the animal. The lower the value for this parameter, the better. The lower the value, the more efficient the conversion of feed into animal meat has been performed. • The column with the heading Ranking FCR 42 denotes, expressed as a percentage, the result of the test with respect to FCR, as compared to the standard test, which has been allocated the value of 100%.
The feed that has been fed to the broilers in the various tests comprises two different embodiments: • a first type of feed is the so-called ‘Poor Feed’: this is a normal, customary feed that is being fed to the broilers, whereby no forced growth and feed conversion is to be expected, and whereby also no particular duty on the intestinal tract of the broilers is imposed. Differently phrased, the broilers have no difficulty in digesting this feed, and the younger broilers grow in a normal path to fully-grown adult animals. • a second type of feed is the so-called ‘Rich Feed’: this is a feed particularly high in energy and proteins, to which a component has been added that results in a more viscous intestine content. The result of the use of this type of feed is that the growth of the broilers is intensified, but it also results in a heavier load on the intestinal tract. So the intestines of the broilers should work harder to fully digest the feed absorbed by the animal. In this case the risk of disturbing the bacterial balance in the intestinal tract is substantially higher. Such an imbalance in bacteria (dysbacteriosis) may be a cause of diseases with resulting adverse effects. […]

Where [1] appears, read: via drinking water, dosage 2.22 Kg/Ton.
[2] abbreviates: TVN 5 mg/KgLW via drinking water, dosage 0.04 Kg/Ton.

As for `CCCCCCCCCCCC(=O)OCC(O)CO` (centres unmarked) [Comp 1, monolaurin], where the note is “dosage 1.2 Kg/Ton of feed”, the “D 0-42 AEW (average final weight of the broilers at day 42)” value (shortened to “D 0-42 AEW”) was 2.55 kg, the “Ranking AEW 42” value was 97% and the “Ranking FCR 42” value came out at 104.6%. For the same compound, the “D 0-42 FCR (conversion of feed to chicken weight)” value (“D 0-42 FCR” below) (dosage 1.2 Kg/Ton of feed, day 0-42) worked out at 1.74. Under “dosage 2.4 Kg/Ton of feed”, the “D 0-42 AEW” value came out at 2.65 kg, the “Ranking AEW 42” value came out at 101% and the “Ranking FCR 42” value stood at 101.3%. For the same compound, under “dosage 2.4 Kg/Ton of feed, day 0-42”, the “D 0-42 FCR” value came out at 1.69.

For `CCCC(=O)OCC(O)CO` (centres unmarked) [Comp 4, monobutyrin], the “D 0-42 AEW” value was found to be 2.68 kg (dosage 2 Kg/Ton of feed), 2.63 kg (dosage 4 Kg/Ton of feed) and 2.65 kg under setting [1]. Further, the “Ranking AEW 42” value runs as follows: (dosage 2 Kg/Ton of feed) 102%; (dosage 4 Kg/Ton of feed) 100%; under setting [1], 101%. Moreover, the “Ranking FCR 42” value is, setting by setting: (dosage 2 Kg/Ton of feed) 97.9%; (dosage 4 Kg/Ton of feed) 101.9%; under setting [1], 98.6%. Also, the “D 0-42 FCR” value by setting is: (dosage 2 Kg/Ton of feed, day 0-42) 1.63; (dosage 4 Kg/Ton of feed, day 0-42) 1.70; (via drinking water, dosage 2.22 Kg/Ton, day 0-42) 1.64.

Take `CC[C@H]1OC(=O)C[C@@H](OC(C)=O)[C@H](C)[C@@H](O[C@@H]2O[C@H](C)[C@@H](O[C@H]3C[C@@](C)(O)[C@@H](OC(=O)CC(C)C)[C@H](C)O3)[C@H](N(C)C)[C@H]2O)[C@@H](CC=O)C[C@@H](C)C(=O)/C=C/C(C)=C/[C@@H]1CO[C@@H]1O[C@H](C)[C@@H](O)[C@@H](OC)[C@H]1OC` [Ref 3, Tylvalosin]: the “average increase in weight per day of the broilers” value (Rich Feed with addition of TVN) came to 66.3 gr. Under setting [2], the “D 0-42 AEW” value is 2.79 kg, the “Ranking AEW 42” value was found to be 106% and the “Ranking FCR 42” value is recorded as 96.6%. Also, the “Ranking AEW 42” value (TVN 5 mg/KgLW via drinking water, dosage 0.04 Kg/Ton, listed as Tylvalosin) amounted to 105.53%. Where the note is “TVN 5 mg/KgLW via drinking water, dosage 0.04 Kg/Ton, entire period day 0-42”, the “D 0-42 FCR” value stood at 1.61.
